Counter-ions that a name gives are not always drawn.
How the values were obtained:
Type in all cases: in vivo
Setaria viridis [1] = assay: Herbicidal action in sugar beet - field trial (Table 2); conditions: application in 2-4-leaf stage, scoring 3 weeks after application
Method: (§1) Transgenic sugar beet plants with resistance to one or more herbicides (A) were grown together with typical weed plants in the open in 2×5 m plots under natural field conditions; alternatively, the weed population established naturally while the sugar beet plants grew. Treatment with the compositions according to the invention and, for control purposes, with separate application of the active ingredients of the components alone, was carried out under standard conditions with a plot sprayer at an application rate of 200-300 liters of water per hectare in parallel trials in accordance with the scheme of Table 1, i.e. pre-sowing/pre-emergence, […] or post-emergence at the early, medium or late stage.
(§2) […] Damage and development of all aerial plant organs was recorded. The scoring was done using a percentage scale (100% activity=all plants dead; 50% activity=50% of the plants and green plant organs dead; 0% activity=no discernible effect=like control plot). The score values of in each case 4 plots were averaged.

transgenic sugar beet [2] = assay: Damage to transgenic sugar beet - field trial (Table 2); conditions: application in 2-4-leaf stage
Method: as §1
(§3) At 2, 4, 6 and 8 week intervals after application, the herbicidal activity of the active ingredients or active ingredient mixtures were scored visually by comparing the treated plots with untreated control plots. Damage and development of all aerial plant organs was recorded. The scoring was done using a percentage scale (100% activity=all plants dead; 50% activity=50% of the plants and green plant organs dead; 0% activity=no discernible effect=like control plot). The score values of in each case 4 plots were averaged.

Galium aparine [3] = assay: Herbicidal action in sugar beet crop (greenhouse experiment, Table 3); conditions: application in the 4-5-leaf stage, scoring 3 weeks after application
Text: Seeds or rhizomes of monocotyledonous and dicotyledonous weeds are placed in sandy loam soil in cardboard pots, covered with soil and grown in the greenhouse under good growth conditions. […] The compositions according to the
Invention, which are formulated as wettable powders or as emulsion concentrates, are sprayed at various dosages onto the green plant organs at an application rate of 600 to 800 l of water per ha (converted). After the experimental plants have remained in the greenhouse for approx. 3 to 4 weeks under optimal growth conditions, the effect of the preparations is scored visually in comparison with untreated controls. The compositions according to the invention also have a good herbicidal activity against a broad spectrum of economically Important grass weeds and broad-leaved weeds when applied post-emergence.

transgenic sugar beet [4] = assay: Damage to transgenic sugar beet (greenhouse experiment, Table 3); conditions: greenhouse Table 3, application in the 4-5-leaf stage
Echinochloa crus-galli = assay: Herbicidal action and selectivity in sugar beet crop (field trial, Table 4); conditions: application in 3-leaf stage, scoring 4 weeks after application
Method: as §1, §3

transgenic sugar beet [5] = assay: Damage to transgenic sugar beet (field trial, Table 4); conditions: application in 3-leaf stage
Method: as §1, §3

Avena fatua = assay: Herbicidal action and selectivity in sugar beet crop (field trial, Table 5); conditions: application in the 3-5-leaf stage, scoring 4 weeks after application
Method: as §1, §3

transgenic sugar beet [6] = assay: Damage to transgenic sugar beet (field trial, Table 5); conditions: application in the 3-5-leaf stage
Method: as §1, §3

Galium aparine [7] = assay: Herbicidal action (field trial, Table 6); conditions: application in the 3-5-leaf stage, scoring 4 weeks after application
Method: as §1, §3

Kochia scoparia = assay: Herbicidal action (field trial, Table 6); conditions: application in the 3-5-leaf stage, scoring 4 weeks after application
Method: as §1, §3

Amaranthus retroflexus = assay: Herbicidal action (field trial, sequential treatment, Table 8); conditions: dose 200 g A.S./ha post-emergence at the 2-3-leaf stage; scorings 22 days after application
Method: as §1, §2

Setaria viridis [8] = assay: as above; conditions: dose 200 g A.S./ha post-emergence at the 2-3-leaf stage; scorings 22 days after application
Method: as §1, §2

CP(=O)(O)CCC(N)C(=O)O (stereo not shown) [(A1.2), glufosinate monoammonium salt]
Herbicidal action in % against Setaria viridis (Setaria viridis [1]; dose 37.5 g A.S./ha): 35%
Herbicidal action in % against Setaria viridis (Setaria viridis [1]; dose 75 g A.S./ha): 85%
Herbicidal action in % against Setaria viridis (Setaria viridis [1]; dose 150 g A.S./ha): 95%
Herbicidal action in % against Setaria viridis (Setaria viridis [1]; dose 300 g A.S./ha): 98%
Damage to transgenic sugar beet (transgenic sugar beet [2]; dose 37.5 g A.S./ha): 0
Damage to transgenic sugar beet (transgenic sugar beet [2]; dose 75 g A.S./ha): 0
Damage to transgenic sugar beet (transgenic sugar beet [2]; dose 150 g A.S./ha): 0
Damage to transgenic sugar beet (transgenic sugar beet [2]; dose 300 g A.S./ha): 0
Herbicidal action in % against Galium aparine (Galium aparine [3]; dose 125 g A.S./ha): 45%
Herbicidal action in % against Galium aparine (Galium aparine [3]; dose 250 g A.S./ha): 60%
Herbicidal action in % against Galium aparine (Galium aparine [3]; dose 500 g A.S./ha): 85%
Damage to transgenic sugar beet (transgenic sugar beet [4]; dose 125 g A.S./ha): 0
Damage to transgenic sugar beet (transgenic sugar beet [4]; dose 250 g A.S./ha): 0
Damage to transgenic sugar beet (transgenic sugar beet [4]; dose 500 g A.S./ha): 0
Herbicidal action in % against Echinochloa crus-galli (Echinochloa crus-galli): 45%
Herbicidal action in % against Echinochloa crus-galli (Echinochloa crus-galli; dose 10 g A.S./ha): 60%
Herbicidal action in % against Echinochloa crus-galli (Echinochloa crus-galli; dose 65 g A.S./ha): 85%
Damage to transgenic sugar beet (transgenic sugar beet [5]; dose 0 g A.S./ha): 0
Damage to transgenic sugar beet (transgenic sugar beet [5]; dose 10 g A.S./ha): 0
Damage to transgenic sugar beet (transgenic sugar beet [5]; dose 65 g A.S./ha): 0
Herbicidal action in % against Avena fatua (Avena fatua; dose 150 g A.S./ha): 30%
Herbicidal action in % against Avena fatua (Avena fatua; dose 300 g A.S./ha): 65%
Herbicidal action in % against Avena fatua (Avena fatua; dose 600 g A.S./ha): 95%
Damage to transgenic sugar beet (transgenic sugar beet [6]; dose 150 g A.S./ha): 0
Damage to transgenic sugar beet (transgenic sugar beet [6]; dose 300 g A.S./ha): 0
Damage to transgenic sugar beet (transgenic sugar beet [6]; dose 600 g A.S./ha): 0
Herbicidal action in % against Galium aparine (Galium aparine [7]; dose 250 g A.S./ha): 20%
Herbicidal action in % against Galium aparine (Galium aparine [7]; dose 300 g A.S./ha): 40%
Herbicidal action in % against Galium aparine (Galium aparine [7]; dose 600 g A.S./ha): 85%
Herbicidal action in % against Kochia scoparia (Kochia scoparia; dose 250 g A.S./ha): 30%
Herbicidal action in % against Kochia scoparia (Kochia scoparia; dose 300 g A.S./ha): 52%
Herbicidal action in % against Kochia scoparia (Kochia scoparia; dose 600 g A.S./ha): 75%
Herbicidal action in % against Amaranthus retroflexus (Amaranthus retroflexus): 55%
Herbicidal action in % against Setaria viridis (Setaria viridis [8]): 60%
